Reference: US20240033208A1, “BOTANICAL EXTRACT BLEND FOR USE IN SKIN CARE” (Shaklee Corporation, priority 2022, published 2024)
Values belong to the molecule of their own block, whether it stands above or below them.

How the values were obtained:
[1] = tested on: AGE formation in collagen; experiment: Collagen AGE prevention assay; format: biochemical
Procedure: AGE Prevention—50 μl of ice-cold collagen solution was added to the wells of a 96 well plate. The plate was incubated overnight at 37° C. to allow the collagen solution to gel. On the following day, 40 μl of either test material (prepared in assay buffer), aminoguanidine (positive control), or assay buffer (negative control) was added to the plate. After the materials were added, 10 μl of a 500 mM glyceraldehyde solution was added to all of the wells. The plate was then read using a fluorometer (355 nm excitation and 405 nm emission) and then incubated for 24 hours in a humidified incubator at 37C. On the following day the plate was read again. AGE formation was determined by subtracting the […] for each sample.

[2] = tested on: preexisting AGEs in collagen; experiment: Collagen AGE reduction assay; format: biochemical
Procedure: AGE Reduction—50 μl of ice-cold collagen solution was added to the wells of a 96 well plate. The plate was then incubated overnight at 37C to allow the collagen solution to gel. On the following day, 10 μl of a 500 mM glyceraldehyde solution was added to all of the wells and the plate was incubated for 24 hours in a humidified incubator at 37° C. On the following day 40 μl of either test material (prepared in assay buffer), aminoguanidine (positive control), or assay buffer (negative control) was added to the plate. The plate was then read using a fluorometer (355 nm excitation and 405 nm emission) and then incubated again for 24 hours in a humidified incubator at 37C. On the following day the plate was read again. AGE formation was determined by subtracting the initial fluorescent measurement from the final fluorescent measurement for each sample.

human recombinant MMP-1 = target: T1, human recombinant MMP-1 (Homo sapiens, UniProt P03956); experiment: Collagenase (MMP-1) inhibition (thiopeptolide/DTNB, 412 nm); format: biochemical
T1 sequence (P03956 100-469): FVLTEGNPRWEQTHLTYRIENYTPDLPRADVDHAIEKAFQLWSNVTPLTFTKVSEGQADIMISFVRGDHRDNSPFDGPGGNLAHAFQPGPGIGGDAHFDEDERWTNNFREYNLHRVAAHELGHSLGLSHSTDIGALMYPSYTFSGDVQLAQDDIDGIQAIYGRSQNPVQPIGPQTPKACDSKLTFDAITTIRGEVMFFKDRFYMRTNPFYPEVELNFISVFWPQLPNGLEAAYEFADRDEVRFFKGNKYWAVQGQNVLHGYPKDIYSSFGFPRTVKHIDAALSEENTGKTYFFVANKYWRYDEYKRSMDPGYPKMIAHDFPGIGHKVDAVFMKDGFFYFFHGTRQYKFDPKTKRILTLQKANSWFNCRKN
Text: Matrix Metalloproteinase-1 (MMP-1) is an extracellular protease with an approximate molecular weight of 52-56 kD in its latent form. Upon cleavage of the proenzyme, the 22-46 kD MMP-1 becomes an active enzyme and can degrade many substrates including collagen, gelatin, and entactin. In human skin, increased MMP-1 activity can be induced via some disease states, exposure to UV irradiation or as part of the natural aging process. This can result in an imbalanced state where the degradation of collagen by MMP-1 exceeds its rate of replacement. Therefore, materials that inhibit MMP-1 activity can be beneficial for skin care. To screen inhibitors of MMP-1, human recombinant MMP-1 was incubated in the presence of a thiopeptolide substrate, potential inhibitors, and 5,5′-dithiobis(2-nitrobenzoic acid) (DTNB). When the thiopeptolide substrate is broken down by MMP-1, it releases a sulfhydryl group that can react with DTNB and form 2-nitro-5-thiobenzoic acid, which can be detected spectrophotometrically at 412 nm. Thus, in the presence of inhibitors, absorbance will be decrease relative to the non-inhibited enzyme.

elastase = experiment: Elastase inhibition (fibroblast lysate, STANA substrate, 405 nm); format: biochemical, human
Procedure: Human dermal fibroblasts were cultured and used as a source of the elastase enzyme. Elastase was partially purified from fibroblasts by lysing the cells in an elastase buffer and retaining the soluble portion of the lysate. Portions of this fibroblast lysate were then be incubated with test materials and a synthetic elastase substrate, Suc-([…])-p-Nitroaniline (STANA). Elastase acts upon the substrate, releasing p-nitroaniline, which can be detected with a spectrophotometer by measuring absorbance at a wavelength of 405 nm. Inhibition of elastase enzyme is indicated by a decrease in the amount of released p-nitroaniline as compared to the uninhibited enzyme.

[3] = tested on: MatTek EpiDerm tissue (UVB induced CPD formation in genomic DNA); experiment: Cyclobutane pyrimidine dimer (CPD) assay, UVB, ELISA; format: cell-based, human; settings: for CPD in genomic DNA: pretreated overnight before UVB
Procedure: The testing system used for this assay was the MatTek EpiDerm, a skin model which consists of normal human-derived epidermal keratinocytes cultured to form a multilayered, highly differentiated model of the human epidermis. For this study, tissues were treated topically either overnight with the test materials prior to UVB exposure (pretreat group to assess prevention). Following treatment, DNA was extracted from the EpiDerm tissues and assayed for CPD content using an ELISA based method.

[4] = ingredients tested individually at the concentrations used in the blends

Structure (SMILES): N=C(N)NN [Aminoguanidine, aminoguanidine, reference compound]
Percent AGE Prevention ([1]; 8 mM): 56.8 ± 0.5%
Percent AGE Reduction ([2]; 8 mM): 33.4 ± 3.3%

Structure (SMILES): COc1ccc(S(=O)(=O)N(CC(=O)NO)CC(C)C)cc1 [NNGH, reference compound]
Percent Inhibition (collagenase) (human recombinant MMP-1; 2 uM): 94 ± 3%

Percent Inhibition (elastase) (elastase; 0.2 mM): 97 ± 0%
Structure (SMILES): CC(C)C[C@H](NP(=O)(O)O[C@@H]1O[C@@H](C)[C@H](O)[C@@H](O)[C@H]1O)C(=O)N[C@@H](Cc1c[nH]c2ccccc12)C(=O)O [Phosphoramidon, reference compound]

Percent Inhibition (elastase) (elastase; 0.075%): 30 ± 3%
Percent Inhibition (elastase) (elastase; 0.08%): 33 ± 2%
Percent Inhibition (collagenase) (human recombinant MMP-1; 0.075%): 4 ± 0%
Percent Inhibition (collagenase) (human recombinant MMP-1; 0.08%): 7 ± 1%
Structure (SMILES): Oc1ccc(/C=C/c2cc(O)cc(O)c2)cc1 [Resveratrol, 5-[(E)-2-(4-Hydroxyphenyl)ethen-1-yl]benzene-1,3-diol]
% Prevention of genomic DNA CPD formation ([3]; 0.0375%): 63%
% Prevention of genomic DNA CPD formation ([3]; 0.075%): 75%
CPD in genomic DNA ([3]; 0.0375%): 1.601 ± 0.180 ng/mL
CPD in genomic DNA ([3]; 0.075%): 1.115 ± 0.085 ng/mL
Percent AGE Prevention ([1]; 0.0375%): 20.8 ± 2.4%
Percent AGE Prevention ([1]; 0.075%): 38.4 ± 7.1%
preventing AGE formation (in words) [1, 4]: significantly effective
Percent AGE Reduction ([2]; 0.0375%): 28.2 ± 1.2%
Percent AGE Reduction ([2]; 0.075%): 32.8 ± 2.8%
reducing existing AGEs (in words) [2, 4]: significantly effective
elastase inhibition (in words) (elastase; summary of Table 10): effective at inhibiting elastase activity on its own

Structure (SMILES): Cc1c(C)c2c(c(C)c1O)CCC(C)(C(=O)O)O2 (stereo not drawn) [Trolox, reference compound]
% Prevention of genomic DNA CPD formation ([3]; 150 ug/ml): 67%
CPD in genomic DNA ([3]; 150 ug/ml): 1.439 ± 0.088 ng/mL
